Patent US10308620B2, “Muscarinic M1 receptor positive allosteric modulators” (SUVEN LIFE SCIENCES LIMITED, priority 2015, dated 2019)

Experiments:
[1] = biological target: recombinant human Muscarinic M1 receptor (Homo sapiens (Human), UniProt P11229); assay: Allosteric potency EC50, CHO cells with pCRE-Luc reporter, in presence of EC20 of acetylcholine; format: cell-based; conditions: 4 hours
Description: Determination of Allosteric Potency EC50 Values for Muscarinic M1 Receptor:
A stable CHO cell line expressing recombinant human Muscarinic M1 receptor and pCRE-Luc reporter system was used for cell-based assay. The assay offers a non-radioactive based approach to determine binding of a compound to GPCRs. In this specific assay, the level of intracellular cyclic AMP which is modulated by activation or inhibition of the receptor is measured. The recombinant cells harbor luciferase reporter gene under the control of cAMP response element.
The above cells were grown in 96 well clear bottom white plates in Hams F12 medium containing 10% fetal bovine serum (FBS). Prior to the addition of compounds or standard agonist, cells were serum starved overnight. Increasing concentrations of test compounds were added along with EC20 of acetylcholine in OptiMEM medium to the cells. The incubation was continued at 37° C. in CO2 incubator for 4 hours. Medium was removed and cells were washed with phosphate buffered saline. The cells were lysed and luciferase activity was measured in a Luminometer. Luminescence units were plotted against the compound concentrations using Graphpad software. EC50 values of the compounds were defined as the concentration required in stimulating the luciferase activity by 50% in presence of EC20 of acetylcholine.

Male Wistar rats = assay: Object recognition task model (time induced memory deficit); format: in vivo, rat; conditions: p.o.; for Exploration time mean ± S.E.M, Familiar object / Exploration time mean ± S.E.M, Novel object: choice trial 24 hours after T1
Description: Object Recognition Task Model
The cognition enhancing properties of compounds of this invention were estimated by using this model.
Male Wistar rats (8-10 weeks old) were used as experimental animals. Four animals were housed in each cage. Animals were kept on 20% food deprivation from a day prior to experimentation. Water was provided ad libitum throughout the experiment. Animals were maintained on a 12 hours light/dark cycle in temperature and humidity controlled room. The experiment was carried out in an open field made up of acrylic. Rats were habituated to individual arenas (open field) for 1 hour in the absence of any objects on day 1.
One group of 12 rats received vehicle and another set of animals received test compounds or test compounds and Donepezil, before the familiar (T1) and choice (T2) trials. During the familiarization phase, (T1), the rats were placed individually in the arena for 3 minutes, in which two identical objects (a1 and a2) were positioned 10 cm from the wall. 24 hours after T1, trial for long-term memory test was performed. The same rats were placed in the same arena as they were placed in T1 trial. During the choice phase (T2) rats were allowed to explore the arena for 3 minutes in presence of a copy of familiar object (a3) and one novel object (b). During the T1 and T2 trial, explorations of each object (defined as sniffing, licking, chewing or having moving vibrissae whilst directing the nose towards the object at a distance of less than 1 cm) were recorded using stopwatch.
T1 is the total time spent exploring the familiar objects (a1+a2).
T2 is the total time spent exploring the familiar object and novel object (a3+b). Discriminative index=Time spent with novel object/(time spent with novel and familiar object).
The object recognition test was performed as described in Behavioural Brain Research, 1988, 31, 47-59.

[2] = Rodent pharmacokinetic study; format: in vivo, rat; conditions: male Wistar rats; for clearance / half-life / Vd / Cmax / Tmax / bioavailability: rat, plasma; for Vd: read-out: Vz; for bioavailability: 3 mg/kg oral vs 1 mg/kg i.v.
Description: Rodent Pharmacokinetic Study
Male Wistar rats (260±50 grams) were used as experimental animals. Animals were housed individually in polypropylene cage. Two days prior to study, male Wistar rats were anesthetized with isoflurane for surgical placement of jugular vein catheter. Rats were randomly divided for oral (3 mg/kg) and intravenous (1 mg/kg) dosing (n=3/group) and fasted overnight before oral dosing (p.o.). However, rats allocated to intravenous (i.v.) dosing food and water was provided ad libitum.
At pre-determined point, blood was collected through jugular vein and replenished with an equivalent volume of normal saline. Collected blood was transferred into a labeled eppendorf tube containing 10 μL of heparin as an anticoagulant. Typically blood samples were collected at following time points: 0.08, 0.25, 0.5, 1, 2, 4, 6, 8, and 24 hours post dose. Blood was centrifuged at 4000 rpm for 10 minutes. Plasma was separated and stored frozen at −80° C. until analysis. The concentrations of the test compounds were quantified in plasma by qualified LC-MS/MS method using suitable extraction technique. The test compounds were quantified in the calibration range around 1-1000 ng/mL in plasma. Study samples were analyzed using calibration samples in the batch and quality control samples spread across the batch.
Pharmacokinetic parameters Cmax, Tmax, AUCt, T1/2, clearance, Vz and bioavailability were calculated by non-compartmental model using standard non-compartmental model by using Phoenix WinNonlin 6.0.2 or 6.0.3 version Software package.

[3] = Rodent brain penetration study; format: in vivo; conditions: rat, oral, 3 mg/kg, p.o., male Wistar rats, read-out: Single dose Rat Brain Penetration (Cb/Cp)
Description: Rodent Brain Penetration Study
Male Wistar rats (260±40 grams) were used as experimental animals. Three animals were housed in each cage. Animals were given water and food ad libitum throughout the experiment and maintained on a 12 hours light/dark cycle.
Brain penetration was determined in discrete manner in rats. One day prior to dosing day, male Wistar rats were acclimatized and randomly grouped according to their weight. At each time point (0.50, 1 and 2 hours) n=3 animals were used.
The test compounds were suitably preformulated and administered orally at (free base equivalent) 3 mg/kg. Blood samples were removed via cardiac puncture by using isoflurane anesthesia. The animals were sacrificed to collect brain tissue. Plasma was separated and brain samples were homogenized and stored frozen at −20° C. until analysis. The concentrations of the test compounds in plasma and brain were determined using LC-MS/MS method.
The test compounds were quantified in plasma and brain homogenate by qualified LC-MS/MS method using suitable extraction technique. The test compounds were quantified in the calibration range of 1-500 ng/mL in plasma and brain homogenate. Study samples were analyzed using calibration samples in the batch and quality control samples spread across the batch. Extent of brain-plasma ratio was calculated (Cb/Cp).

Chain of recombinant human Muscarinic M1 receptor (P11229 whole entry): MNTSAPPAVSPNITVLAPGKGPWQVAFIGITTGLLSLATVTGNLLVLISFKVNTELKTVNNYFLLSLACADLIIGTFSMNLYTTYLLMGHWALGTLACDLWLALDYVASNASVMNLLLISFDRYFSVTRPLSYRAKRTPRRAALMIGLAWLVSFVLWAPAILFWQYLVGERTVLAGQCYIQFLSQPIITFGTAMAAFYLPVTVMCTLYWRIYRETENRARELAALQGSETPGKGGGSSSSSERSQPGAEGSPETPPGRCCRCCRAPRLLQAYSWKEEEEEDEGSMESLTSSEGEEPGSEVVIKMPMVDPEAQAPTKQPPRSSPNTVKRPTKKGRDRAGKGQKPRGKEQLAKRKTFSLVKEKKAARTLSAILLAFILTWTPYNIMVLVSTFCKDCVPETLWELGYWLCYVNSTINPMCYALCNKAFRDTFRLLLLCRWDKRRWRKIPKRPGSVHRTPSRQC

| Compound | EC50 [1] | Inference (Male Wistar rats; 1 mg/kg) | Exploration time mean ± S.E.M, Familiar object (Male Wistar rats; 1 mg/kg) | Exploration time mean ± S.E.M, Novel object (Male Wistar rats; 1 mg/kg) | AUC0-t ([2]; 1 mg/kg i.v. (bolus)) | AUC0-t ([2]; 3 mg/kg oral (gavage)) | clearance ([2]; iv, 1 mg/kg i.v. (bolus)) | half-life ([2]; iv, 1 mg/kg i.v. (bolus)) | Vd ([2]; iv, 1 mg/kg i.v. (bolus)) | Cmax ([2]; 3 mg/kg oral (gavage)) | Tmax ([2]; 3 mg/kg oral (gavage)) | half-life ([2]; 3 mg/kg oral (gavage)) | bioavailability [2] | Kp [3] | Inference (Male Wistar rats; 10 mg/kg) | Exploration time mean ± S.E.M, Familiar object (Male Wistar rats; 10 mg/kg) | Exploration time mean ± S.E.M, Novel object (Male Wistar rats; 10 mg/kg) |
| --- | --- | --- | --- | --- | --- | --- | --- | --- | --- | --- | --- | --- | --- | --- | --- | --- | --- |
| COc1cc(CN2C=C(C(=O)N[C@H]3CCCC[C@@H]3O)Oc3ccccc32)ccn1 [Example 11, N-(cis-1S,2S-2-Hydroxycyclohexyl)-4-(2-methoxypyridin-4-ylmethyl)-4H-benzo[1,4]oxazine-2-carboxamide] | 498 nM | Active | 10.05 ± 1.66 s | 16.92 ± 1.86 s | 838 ± 163 ng·h/mL | 1500 ± 200 ng·h/mL | 20 ± 4 mL/min/kg | 114 ± 36 min | 3.1 ± 0.3 L/kg | 392 ± 43 ng/mL | 1 h | 108 ± 6 min | 60 ± 8% | 1.44 ± 0.16 |  |  |  |
| COc1cccc(CN2C=C(C(=O)N[C@H]3CCCC[C@@H]3O)Oc3ccccc32)c1 [Example 9, N-(cis-1S, 2S-2-Hydroxycyclohexyl)-4-(3-methoxybenzyl)-4H-benzo[1,4]oxazine-2-carboxamide] | 699 nM | Active | 8.64 ± 0.82 s | 18.55 ± 1.70 s | 711 ± 137 ng·h/mL | 1180 ± 245 ng·h/mL | 24 ± 4 mL/min/kg | 252 ± 132 min | 8.3 ± 4.1 L/kg | 320 ± 68 ng/mL | 1.33 ± 0.58 h | 174 ± 78 min | 55 ± 11% | 0.65 ± 0.2 |  |  |  |
| O=C(N[C@H]1CCCC[C@@H]1O)C1=CN(Cc2cccc(C(F)(F)F)c2)c2ccccc2O1 [Example 17, N-(cis-1S, 2S-2-Hydroxycyclohexyl)-4-(3-trifluoromethylbenzyl)-4H-benzo[1,4]oxazine-2-carboxamide] | 149 nM |  |  |  | 600 ± 74 ng·h/mL | 467 ± 169 ng·h/mL | 27 ± 3 mL/min/kg | 552 ± 132 min | 22 ± 8 L/kg | 91 ± 38 ng/mL | 4 h | 156 ± 12 min | 26 ± 9% | 1.92 ± 0.24 |  |  |  |
| O=C(N[C@H]1CCCC[C@@H]1O)C1=CN(Cc2cccc(F)c2)c2cccc(F)c2O1 [Example 51, N-(cis-1S,2S-2-Hydroxycyclohexyl)-4-{3-fluorobenzyl}-8-fluoro-4H-benzo[1,4]oxazine-2-carboxamide] | 420 nM |  |  |  | 533 ± 62 ng·h/mL | 371 ± 149 ng·h/mL | 31 ± 4 mL/min/kg | 216 ± 180 min | 9.8 ± 8 L/kg | 132 ± 32 ng/mL | 1 h | 138 ± 30 min | 23 ± 9% | 1.93 ± 0.37 |  |  |  |
| O=C(N[C@H]1CCCC[C@@H]1O)C1=CN(Cc2cccc(F)c2F)c2ncccc2O1 [Example 33, N-(cis-1S,2S-2-Hydroxycyclohexyl)-4-(2,3-difluorobenzyl)-4H-pyrido[3,2-b][1,4]oxazine-2-carboxamide] | 1180 nM |  |  |  | 452 ± 135 ng·h/mL | 719 ± 269 ng·h/mL | 39 ± 10 mL/min/kg | 72 ± 36 min | 3.5 ± 1 L/kg | 159 ± 26 ng/mL | 1.5 ± 0.9 h | 192 ± 120 min | 53 ± 20% | 1.96 ± 0.91 |  |  |  |
| O=C(N[C@H]1CCCC[C@@H]1O)C1=CN(Cc2ccccn2)c2ccccc2S1 [Example 92, N-(cis-1S,2S-2-Hydroxycyclohexyl)-4-{pyridin-2-ylmethyl}-4H-benzo[1,4]thiazine-2-carboxamide] | 1470 nM |  |  |  | 262 ± 50 ng·h/mL | 255 ± 32 ng·h/mL | 64 ± 11 mL/min/kg | 48 ± 12 min | 4.2 ± 0.7 L/kg | 195 ± 22 ng/mL | 0.33 ± 0.14 h | 102 ± 60 min | 32 ± 4% |  |  |  |  |
| O=C(N[C@H]1CCCC[C@@H]1O)C1=CN(Cc2ccncc2)c2ccccc2O1 [Example 23, N-(cis-1S,2S-2-Hydroxycyclohexyl)-4-(pyridin-4-ylmethyl)-4H-benzo[1,4]oxazine-2-carboxamide] | 323 nM | Active | 13.15 ± 1.55 s | 17.99 ± 2.53 s | 419 ± 182 ng·h/mL | 437 ± 138 ng·h/mL | 44 ± 21 mL/min/kg | 90 ± 54 min | 6.8 ± 7.1 L/kg | 428 ± 78 ng/mL | 0.42 ± 0.14 h | 72 ± 36 min | 35 ± 11% | 0.32 ± 0.02 |  |  |  |
| O=C(N[C@H]1CCCC[C@@H]1O)C1=CN(Cc2ccc(F)c(F)c2)c2ccccc2O1 [Example 19, N-(cis-1S,2S-2-Hydroxycyclohexyl)-4-(3,4-difluorobenzyl)-4H-benzo[1,4]oxazine-2-carboxamide] | 120 nM |  |  |  | 1240 ± 84 ng·h/mL | 2490 ± 223 ng·h/mL | 13 ± 1 mL/min/kg | 228 ± 30 min | 4.4 ± 0.2 L/kg | 252 ± 17 ng/mL | 1.67 ± 0.6 h | 222 ± 6 min | 67 ± 6% |  |  |  |  |
| O=C(NC1CCOCC1O)C1=CN(Cc2cccc(F)c2F)c2ccccc2O1 (stereo not drawn) [Example 20, N-(3-Hydroxytetrahydrpyran-4-yl)-4-(2,3-difluorobenzyl)-4H-benzo[1,4]oxazine-2-carboxamide] | 1250 nM |  |  |  |  |  |  |  |  |  |  |  |  | 0.82 ± 0.25 | Active | 12.17 ± 1.84 s | 19.94 ± 3.02 s |
| COc1ccc(CN2C=C(C(=O)N[C@H]3CCCC[C@@H]3O)Oc3ccccc32)cc1 [Example 5, N-(cis-1S, 2S-2-Hydroxycyclohexyl)-4-(4-methoxybenzyl)-4H-benzo[1,4]oxazine-2-carboxamide] | 135 nM |  |  |  | 1150 ± 62 ng·h/mL | 3980 ± 533 ng·h/mL | 14 ± 1 mL/min/kg | 270 ± 12 min | 5.6 ± 0.5 L/kg | 430 ± 35 ng/mL | 2.83 ± 2.02 h | 234 ± 6 min | 115 ± 15% | 0.9 ± 0.15 |  |  |  |
